Laboratory results published in US12642786B2, “Methods, compositions and kits for treating multiple sclerosis and other disorders” (The Johns Hopkins University, priority 2018, dated 2026).

Legend:
[1] = tested on: CD4+, Th1 and Th17 lymphocytes in EAE mice; experiment: Flow cytometry of spinal cord in EAE mice treated from clinical score 1.0; type: in vivo, C57BL/6J mice; conditions: day 18 post-immunization (late peak), treatment started at score 1.0
Procedure: Mice were killed with pentobarbital and perfused via cardiac puncture with ice-cold HBSS without cations. Brain, spinal cord (collected using hydrostatic pressure), spleen, and lymph node tissue were isolated after perfusion and were mechanically dissociated by passing through 100-μm cell strainers. For CNS tissue, after dissociation, infiltrating mononuclear cells were separated from myelin debris using a 37/70% percoll gradient. After dissociation, spleens were incubated in ACK lysis buffer to remove red blood cell contamination. Cells were counted using a MACSQuant flow cytometer (Miltenyi Biotec).
For surface marker and intracellular cytokine staining of T cells, the cells were first restimulated with a cell stimulation mixture with protein transport inhibitors (eBioscience, catalog #00-4975-03) for 4 h in cRPMI at 37° C. They then underwent live/dead and surface marker staining as earlier. For intracellular cytokine staining, cells were permeabilized and fixed using either IC Fixation buffer for cytokine analysis (eBioscience, 00-8222-49) or FoxP3 fixation/permeabilization buffer for transcription factor analysis (eBioscience, 00-5521-00) after manufacturer recommended protocol and incubated with specific conjugated antibodies for the specified proteins in permeabilization buffer for 1 h.
(§1) Cells were analyzed by flow cytometry using a MACSQuant flow cytometer (Miltenyi Biotec). Flow data analysis was performed in FlowJo (FlowJo) or FlowLogic (Inivai).

[2] = tested on: corpus callosum, LPC demyelination; experiment: Lysolecithin (LPC)-induced demyelination, MBP staining; type: in vivo, C57BL/6J mice; conditions: 30 μg/kg IP at 3, 5, 7 and 9 dpl, assessed at 10 dpl
Procedure: To evaluate the impact of systemic treatment with bryo-1 on physiologic demyelination in vivo, we conducted a lysolecithin (LPC)-induced demyelination animal study. LPC was stereotactically injected into the corpus callosum of 12-week old C57BL/6J mice. Bryo-1 (30 μg/kg) or vehicle was injected IP at 3, 5, 7, and 9 dpl followed by immunofluorescent assessment of MBP expression at 10 dpl.

[3] = tested on: EAE (MOG35-55 immunized mice); experiment: EAE, treatment initiated at clinical score of 1.0, clinical scoring; type: in vivo, C57BL/6J mice
Procedure: Active EAE was induced in 8-12 wk-old female C57BL/6J mice that had been allowed to acclimatize to the animal facility for at least 1 wk. MOG35-55 peptide dissolved in PBS at a concentration of 2 mg/mL was mixed 1:1 with complete Freund's adjuvant to make an emulsion. On day 0, mice were immunized by injecting 50 μL of the emulsion s.c. into each of two sites on the lateral abdomen. In addition, on day 0 and again on day 2, mice were injected intraperitoneally with 250 ng pertussis toxin. Mice were weighed and scored beginning on day 7 post-immunization. Scoring was performed in a blinded manner according to the following scale:
Bryo-1 was prepared by initially dissolving in 100% ethanol and then further diluting to 20% ethanol and 1% DMSO in PBS. The final concentration of bryo-1 was […] Mice were treated by i.p. injection of […] bryo-1 or an equal volume of vehicle control (20% ethanol and 1% DMSO in PBS) 3 d per week (Monday, Wednesday, Friday).
In a second set of experiments, mice were randomized and treatment was begun when the mice reached a clinical score of 1.0 (corresponding to tail paralysis). In this paradigm, mice received their first treatment on the day they reached a score of 1.0, and subsequently were returned to a 3 d/week schedule in sync with the other animals.
The effects of bryo-1 in two distinct therapeutic paradigms were analyzed. In both paradigms, treatments began after the onset of EAE, but the start of the treatments occurred at two different stages of the disease. In the first set of experiments, mice were randomized and treatment was initiated at the first clinical sign of motor weakness, corresponding to tail paralysis (FIG. 2A).

[4] = tested on: bone marrow-derived dendritic cells (BMDCs); experiment: BMDC CD40 and CD86 expression by flow cytometry; type: cell-based, C57BL/6J mice
Procedure: All staining procedures were performed in the dark at room temperature. For analysis of surface marker expression on bone marrow-derived DCs, cells were first stained with LIVE/DEAD aqua (Life Technologies, L-34966) for 30 min at room temperature in PBS. Fc receptors were blocked with anti-CD16/CD32 (Biolegend, 101320) for the final 10 min of staining. The cells were then washed and stained with specific conjugated antibodies for the specified surface markers in FACS buffer (PBS supplemented with 2% FBS and 1 mM EDTA) for 30 min.
as §1
BMDCs were generated as described in Lutz, “An advanced culture method for generating large quantities of highly pure dendritic cells from mouse bone marrow,” 1999, J. Immunol. Methods 223:77-92, with minor modifications. Briefly, femurs were removed from 6-10-wk-old female C57BL/6J mice, cut on both ends, and marrow flushed with PBS. Bone marrow cells were then pelleted by centrifugation (500×g for 8 min), resuspended in red blood cell lysis buffer (Sigma) for 1 min, and quenched with excess PBS. After another centrifugation, cells were resuspended in complete RPMI (cRPMI) media consisting of RPMI-1640 with GlutaMAX™ supplement (Thermo Fisher Scientific) supplemented with 10% FBS, penicillin-streptomycin (Gibco), and 50 μM 2-mercaptoethanol (Sigma). On day 0, ˜2×10^6 cells were then seeded per 100-mm plate in 10 mL media containing 20 ng/mL rmGM-CSF (Peprotech). On day 3, an additional 10 mL fresh cRPMI media containing 20 ng/mL rmGM-CSF was added to each plate. On day 6, half the culture supernatant from each plate was removed and centrifuged, and the pelleted cells resuspended in 10 mL fresh cRPMI with 20 ng/mL rmGM-CSF and added back to the plates. On day 8, all nonadherent cells (representing the BMDC fraction) were collected, pelleted by centrifugation, resuspended in fresh cRPMI media with 20 ng/mL rmGM-CSF, and plated into 24-well dishes. These BMDCs were then treated overnight with or without LPS 100 ng/mL plus the indicated doses of bryo-1. The following day (day 9), these cells were then assayed by flow cytometry or cytokine ELISA.

[5] = tested on: mixed glial cultures (MGCs); experiment: Mixed glial cultures, iNOS / Arg1 immunoblot; type: cell-based, C57BL/6J mice
Procedure: Mixed glial cultures (MGCs) obtained from the cerebral cortices of P1-P3 neonatal C57BL/6J mice were used, prepared as described by Saura et al., Glia (2003) 44:183-189. Mixed glial cultures were treated with LPS (FIG. 6A) or IL4 (FIG. 6B) ±vehicle or the indicated dose of bryo-1. Expression of iNOS or Argl, respectively, was assessed by immunoblot. Images are representative of 3 independent experiments.

## CCC/C=C/C=C/C(=O)OC1/C(=C/C(=O)OC)CC2CC(C(C)O)OC(=O)CC(O)CC3CC(OC(C)=O)C(C)(C)C(O)(CC4C/C(=C/C(=O)OC)CC(/C=C/C(C)(C)C1(O)O2)O4)O3 (stereo not shown) [bryo-1, Bryostatin-1]
[1]
  numbers of Th1 cells in spinal cord: significantly diminished numbers
  numbers of Th17 cells in spinal cord: significantly diminished numbers
  total CD4+ lymphocytes in spinal cord: near-significant trend (P=0.06) toward decreased
[2]
  rate of oligodendrogenesis (MBP staining): appears to have increased the rate of oligodendrogenesis
[3]; 30 μg/kg i.p. 3 d per week, started at first clinical sign (tail paralysis, score 1.0)
  motor deficits and subsequent course of EAE: substantially attenuated
[3]; treatment started at score 1.0
  peak clinical score vs vehicle-treated mice: lower peak clinical score
  recovery vs vehicle-treated mice: faster recovery
[4]; LPS 100 ng/mL
  CD86 expression in LPS-stimulated BMDCs: no effect
[4]; LPS 100 ng/mL, bryo-1 at either 20 or 200 nM
  LPS-induced up-regulation of CD40: abrogated
[4]; absence of LPS, overnight
  CD40 expression: no significant effect
  CD86 expression: up-regulates CD86
[5]; MGCs treated with IL4, dose as low as 1 nM
  expression of Argl (M2 marker): dramatically augmented expression
[5]; MGCs treated with LPS
  induction of iNOS (an M1 marker) by LPS: blocked the induction
